In US7217730B2, “Method for the use of pyranoindole derivatives to treat infection with Hepatitis C virus” (Wyeth, priority 2002, dated 2007):

Biological target: T1, NS5B from the BK strain (genotype 1b) (Hepatitis C virus genotype 1b, UniProt P26663)
T1 construct: NS5B from the BK strain (genotype 1b) is expressed in E. coli as a protein in which the 21 C-terminal amino acids are replaced; made in house; host or cells: E. coli
Test: Hepatitis C polymerase inhibition, NS5B BK strain, 33P-GTP filter assay
Format: biochemical
Settings: Table 1A; for inhibition at 20 µM: 20 μM compound, read-out: HCV pol % inh at 20 μM; for IC50: NS5B BK strain, read-out: HCV pol BK IC50
In short: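 Radiolabelled RNA synthesis was measured by filter capture and scintillation counting after EDTA stop. His-tagged, C-terminally truncated (Δ21) genotype 1b BK NS5B from E. coli, pre-exposed to compound for 15 min, copied a self-primed RNA template (~3 nM) with α-[33P]-GTP for 2 h at room temperature.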

T1 sequence (P26663 2420-2989): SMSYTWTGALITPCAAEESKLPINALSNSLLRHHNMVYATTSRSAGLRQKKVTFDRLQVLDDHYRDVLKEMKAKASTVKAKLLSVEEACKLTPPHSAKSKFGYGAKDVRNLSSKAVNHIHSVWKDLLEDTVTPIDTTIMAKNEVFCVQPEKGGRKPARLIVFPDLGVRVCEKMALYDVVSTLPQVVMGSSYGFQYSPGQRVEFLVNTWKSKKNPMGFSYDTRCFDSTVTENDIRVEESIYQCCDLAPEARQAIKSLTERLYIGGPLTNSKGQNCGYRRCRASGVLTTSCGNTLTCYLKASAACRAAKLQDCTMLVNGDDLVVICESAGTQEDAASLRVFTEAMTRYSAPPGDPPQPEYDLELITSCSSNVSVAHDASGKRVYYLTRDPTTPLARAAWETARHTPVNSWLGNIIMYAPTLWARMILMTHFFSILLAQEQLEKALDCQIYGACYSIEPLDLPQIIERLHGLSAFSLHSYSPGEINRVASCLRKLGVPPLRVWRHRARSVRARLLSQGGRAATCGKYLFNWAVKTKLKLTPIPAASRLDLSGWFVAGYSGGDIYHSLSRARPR

Row | Compound | inhibition at 20 µM [%] | IC50 [µM]
1 | CC(C)C1(CC(=O)O)OCCc2c1[nH]c1c(F)ccc(F)c21 (stereo not drawn) [Example 125, (5,8-difluoro-1-isopropyl-1,3,4,9-tetrahydropyrano[3,4-b]indol-1-yl)acetic acid] | 73 | > 20
2 | CCCCC1(CC(=O)O)OCCc2c1[nH]c1c(F)ccc(F)c21 (stereo not drawn) [Example 126, (1-butyl-5,8-difluoro-1,3,4,9-tetrahydropyrano[3,4-b]indol-1-yl)acetic acid] | 35 | > 20
3 | C/C=C/CCC1(CC(=O)O)OCCc2c1[nH]c1c(F)ccc(F)c21 (stereo not drawn) [Example 127, {5,8-difluoro-1-[(3E)-pent-3-enyl]-1,3,4,9-tetrahydropyrano[3,4-b]indol-1-yl}acetic acid] | 24 | > 20
4 | O=C(O)CC1(c2ccc(C(=O)O)cc2)OCCc2c1[nH]c1c(F)ccc(F)c21 (stereo not drawn) [Example 128, 4-[1-(carboxymethyl)-5,8-difluoro-1,3,4,9-tetrahydropyrano[3,4-b]indol-1-yl]benzoic acid] | 70 | > 20
5 | CC1(CC(=O)O)OCCc2c1[nH]c1c(Cl)ccc(C(F)(F)F)c21 (stereo not drawn) [Example 129, [8-chloro-1-methyl-5-(trifluoromethyl)-1,3,4,9-tetrahydropyrano[3,4-b]indol-1-yl]acetic acid] | 45 | > 20
6 | CCC1(CC(=O)O)OCCc2c1[nH]c1c(Cl)ccc(C(F)(F)F)c21 (stereo not drawn) [Example 130, [8-chloro-1-ethyl-5-(trifluoromethyl)-1,3,4,9-tetrahydropyrano[3,4-b]indol-1-yl]acetic acid] | 77 | 5.5
7 | CCCC1(CC(=O)O)OCCc2c1[nH]c1c(Cl)ccc(C(F)(F)F)c21 (stereo not drawn) [Example 131, [8-chloro-1-propyl-5-(trifluoromethyl)-1,3,4,9-tetrahydropyrano[3,4-b]indol-1-yl]acetic acid] | 93 | 0.32
8 | CC(C)C1(CC(=O)O)OCCc2c1[nH]c1c(Cl)ccc(C(F)(F)F)c21 (stereo not drawn) [Example 132, [8-chloro-1-isopropyl-5-(trifluoromethyl)-1,3,4,9-tetrahydropyrano[3,4-b]indol-1-yl]acetic acid] | 78 | 9.5
9 | CCCCC1(CC(=O)O)OCCc2c1[nH]c1c(Cl)ccc(C(F)(F)F)c21 (stereo not drawn) [Example 133, [1-butyl-8-chloro-5-(trifluoromethyl)-1,3,4,9-tetrahydropyrano[3,4-b]indol-1-yl]acetic acid] | 88 | 0.7
10 | C/C=C/CCC1(CC(=O)O)OCCc2c1[nH]c1c(Cl)ccc(C(F)(F)F)c21 (stereo not drawn) [Example 134, [8-chloro-1-[(3E)-pent-3-enyl]-5-(trifluoromethyl)-1,3,4,9-tetrahydropyrano[3,4-b]indol-1-yl]acetic acid] | 28 | > 20
11 | O=C(O)CC1(c2ccccc2)OCCc2c1[nH]c1c(Cl)ccc(C(F)(F)F)c21 (stereo not drawn) [Example 135, [8-chloro-1-phenyl-5-(trifluoromethyl)-1,3,4,9-tetrahydropyrano[3,4-b]indol-1-yl]acetic acid] | 55 | > 20
12 | O=C(O)CC1(c2ccoc2)OCCc2c1[nH]c1c(Cl)ccc(C(F)(F)F)c21 (stereo not drawn) [Example 136, [8-chloro-1-(3-furyl)-5-(trifluoromethyl)-1,3,4,9-tetrahydropyrano[3,4-b]indol-1-yl]acetic acid] | 81 | 4.3
13 | Cc1ccc(C)c2c3c([nH]c12)C(C)(CC(=O)O)OCC3 (stereo not drawn) [Example 137, (1,5,8-trimethyl-1,3,4,9-tetrahydropyrano[3,4-b]indol-1-yl)acetic acid] | 5 | > 20
14 | CCC1(CC(=O)O)OCCc2c1[nH]c1c(C)ccc(C)c21 (stereo not drawn) [Example 138, (1-ethyl-5,8-dimethyl-1,3,4,9-tetrahydropyrano[3,4-b]indol-1-yl)acetic acid] | 38 | > 20
15 | CCCC1(CC(=O)O)OCCc2c1[nH]c1c(C)ccc(C)c21 (stereo not drawn) [Example 139, (5,8-dimethyl-1-propyl-1,3,4,9-tetrahydropyrano[3,4-b]indol-1-yl)acetic acid] | 40 | 8.3
16 | Cc1ccc(F)c2c3c([nH]c12)C(C)(CC(=O)O)OCC3 (stereo not drawn) [Example 140, (5-fluoro-1,8-dimethyl-1,3,4,9-tetrahydropyrano[3,4-b]indol-1-yl)acetic acid] | 28 | > 20
17 | CCCC1(CC(=O)O)OCCc2c1[nH]c1c(C)ccc(F)c21 (stereo not drawn) [Example 141, (5-fluoro-8-methyl-1-propyl-1,3,4,9-tetrahydropyrano[3,4-b]indol-1-yl)acetic acid] | 79 | 1.4
18 | CCC1(CC(=O)O)OCCc2c1[nH]c1c(C)ccc(F)c21 (stereo not drawn) [Example 142, (1-ethyl-5-fluoro-1,3,4,9-tetrahydro-8-methyl-pyrano[3,4-b]indol-1-yl)acetic acid] | 39 | 19.8
19 | Cc1ccc(F)c2c3c([nH]c12)C(CC(=O)O)(C(C)C)OCC3 (stereo not drawn) [Example 143, (5-fluoro-1-isopropyl-8-methyl-1,3,4,9-tetrahydropyrano[3,4-b]indol-1-yl)acetic acid] | 56 | 16.5
20 | CCCCC1(CC(=O)O)OCCc2c1[nH]c1c(C)ccc(F)c21 (stereo not drawn) [Example 144, (1-butyl-5-fluoro-8-methyl-1,3,4,9-tetrahydropyrano[3,4-b]indol-1-yl)acetic acid] | 73 | 6
21 | C/C=C/CCC1(CC(=O)O)OCCc2c1[nH]c1c(C)ccc(F)c21 (stereo not drawn) [Example 145, {5-fluoro-8-methyl-1-[(3E)-pent-3-enyl]-1,3,4,9-tetrahydropyrano[3,4-b]indol-1-yl}acetic acid] | 20 | > 20
22 | Cc1ccc(F)c2c3c([nH]c12)C(CC(=O)O)(c1ccccc1)OCC3 (stereo not drawn) [Example 146, (5-fluoro-8-methyl-1-phenyl-1,3,4,9-tetrahydropyrano[3,4-b]indol-1-yl)acetic acid] | 45 | > 20
23 | CCCC1(CC(=O)O)OCCc2c1[nH]c1c(F)ccc(-c3ccccc3)c21 (stereo not drawn) [Example 147, (8-fluoro-5-phenyl-1-propyl-1,3,4,9-tetrahydropyrano[3,4-b]indol-1-yl)acetic acid] | 34 | –
24 | CCCC1(CC(=O)O)OCCc2c1[nH]c1c(F)ccc(-c3ccc(C)cc3)c21 (stereo not drawn) [Example 148, [8-fluoro-5-(4-methylphenyl)-1-propyl-1,3,4,9-tetrahydropyrano[3,4-b]indol-1-yl]acetic acid] | 47 | > 20
25 | CCCC1(CC(=O)O)OCCc2c1[nH]c1c(F)ccc(-c3ccc(OC)cc3)c21 (stereo not drawn) [Example 149, [8-fluoro-5-(4-methoxyphenyl)-1-propyl-1,3,4,9-tetrahydropyrano[3,4-b]indol-1-yl]acetic acid] | < 11 | 16
26 | CCCC1(CC(=O)O)OCCc2c1[nH]c1c(F)ccc(-c3ccc(C(F)(F)F)cc3)c21 (stereo not drawn) [Example 150, {8-fluoro-1-propyl-5-[4-(trifluoromethyl)phenyl]-1,3,4,9-tetrahydropyrano[3,4-b]indol-1-yl}acetic acid] | < 37 | 9
